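Test compounds were applied to cells in 96-well plates for 48 hours at 5 doses. At the TGI there is no net growth.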
How the values were obtained:
Assay in all cases: NCI anticancer screen, dose series, 48 h
786-0 renal = tested on: 786-0 renal
A498 renal = tested on: A498 renal
A549 NSCLC = tested on: A549 NSCLC
ACHN renal = tested on: ACHN renal
CAKI-1 renal = tested on: CAKI-1 renal
CCRF-CEM leukemia = tested on: CCRF-CEM leukemia
COLO 205 colon = tested on: COLO 205 colon
DLD-1 colon = tested on: DLD-1 colon
DMS 114 small cell lung = tested on: DMS 114 small cell lung
DMS 273 small cell lung = tested on: DMS 273 small cell lung
EKVX NSCLC = tested on: EKVX NSCLC
HCC-2998 colon = tested on: HCC-2998 colon
HCT-116 colon = tested on: HCT-116 colon
HL-60(TB) leukemia = tested on: HL-60(TB) leukemia
HOP-62 NSCLC = tested on: HOP-62 NSCLC
IGROV1 ovarian = tested on: IGROV1 ovarian
K-562 leukemia = tested on: K-562 leukemia
KM12 colon = tested on: KM12 colon
LOX IMVI melanoma = tested on: LOX IMVI melanoma
LXFL 529 NSCLC = tested on: LXFL 529 NSCLC
M14 melanoma = tested on: M14 melanoma
MALME-3M melanoma = tested on: MALME-3M melanoma
NCI-H460 lung = tested on: NCI-H460 lung
NCI-H522 lung = tested on: NCI-H522 lung
OVCAR-3 ovarian = tested on: OVCAR-3 ovarian
OVCAR-4 ovarian = tested on: OVCAR-4 ovarian
OVCAR-8 ovarian = tested on: OVCAR-8 ovarian
RPMI-8226 leukemia = tested on: RPMI-8226 leukemia
SF-268 CNS = tested on: SF-268 CNS
SF-295 CNS = tested on: SF-295 CNS
SF-539 CNS = tested on: SF-539 CNS
SK-MEL-5 melanoma = tested on: SK-MEL-5 melanoma
SK-OV-3 ovarian = tested on: SK-OV-3 ovarian
SN12C renal = tested on: SN12C renal
SNB-19 CNS = tested on: SNB-19 CNS
SNB-75 CNS = tested on: SNB-75 CNS
SR leukemia = tested on: SR leukemia
SW-620 colon = tested on: SW-620 colon
UACC-257 melanoma = tested on: UACC-257 melanoma
UACC-62 melanoma = tested on: UACC-62 melanoma
UO-31 renal = tested on: UO-31 renal
HCT-15 colon = tested on: HCT-15 colon
HOP-18 NSCLC = tested on: HOP-18 NSCLC
HT29 colon = tested on: HT29 colon
KM20L2 colon = tested on: KM20L2 colon
M19-MEL melanoma = tested on: M19-MEL melanoma
MOLT-4 leukemia = tested on: MOLT-4 leukemia
NCI-H226 lung = tested on: NCI-H226 lung
NCI-H23 lung = tested on: NCI-H23 lung
RXF 393 renal = tested on: RXF 393 renal
SK-MEL-28 melanoma = tested on: SK-MEL-28 melanoma
TK-10 renal = tested on: TK-10 renal
U251 CNS = tested on: U251 CNS

O=c1c2ccccc2oc2ccccc12 (tested in a mixture with another compound)
TGI (786-0 renal): > 100 µM | TGI (A498 renal): 82.5 µM | TGI (A549 NSCLC): > 100 µM | TGI (ACHN renal): > 100 µM | TGI (CAKI-1 renal): > 100 µM | TGI (CCRF-CEM leukemia): > 100 µM | TGI (COLO 205 colon): > 100 µM | TGI (DLD-1 colon): 7.75 µM | TGI (DMS 114 small cell lung): 5.08 µM | TGI (DMS 273 small cell lung): > 100 µM | TGI (EKVX NSCLC): > 100 µM | TGI (HCC-2998 colon): 89.9 µM | TGI (HCT-116 colon): > 100 µM | TGI (HL-60(TB) leukemia): > 100 µM | TGI (HOP-62 NSCLC): > 100 µM | TGI (IGROV1 ovarian): 22.1 µM | TGI (K-562 leukemia): > 100 µM | TGI (KM12 colon): > 100 µM | TGI (LOX IMVI melanoma): 17 µM | TGI (LXFL 529 NSCLC): > 100 µM | TGI (M14 melanoma): > 100 µM | TGI (MALME-3M melanoma): 8.18 µM | TGI (NCI-H460 lung): 25.9 µM | TGI (NCI-H522 lung): > 100 µM | TGI (OVCAR-3 ovarian): > 100 µM | TGI (OVCAR-4 ovarian): > 100 µM | TGI (OVCAR-8 ovarian): > 100 µM | TGI (RPMI-8226 leukemia): > 100 µM | TGI (SF-268 CNS): > 100 µM | TGI (SF-295 CNS): 53.3 µM | TGI (SF-539 CNS): > 100 µM | TGI (SK-MEL-5 melanoma): 7.61 µM | TGI (SK-OV-3 ovarian): 62.5 µM | TGI (SN12C renal): 60.8 µM | TGI (SNB-19 CNS): > 100 µM | TGI (SNB-75 CNS): 7.58 µM | TGI (SR leukemia): > 100 µM | TGI (SW-620 colon): > 100 µM | TGI (UACC-257 melanoma): 9.31 µM | TGI (UACC-62 melanoma): > 100 µM | TGI (UO-31 renal): > 100 µM

COc1ccc(NC(=O)CC(=O)N/N=C(\C)c2cc3ccccc3oc2=O)cc1
TGI (786-0 renal): > 100 µM | TGI (A549 NSCLC): > 100 µM | TGI (ACHN renal): > 100 µM | TGI (CCRF-CEM leukemia): > 100 µM | TGI (COLO 205 colon): > 100 µM | TGI (DLD-1 colon): > 100 µM | TGI (DMS 114 small cell lung): > 100 µM | TGI (DMS 273 small cell lung): > 100 µM | TGI (EKVX NSCLC): > 100 µM | TGI (HCT-116 colon): > 100 µM | TGI (HCT-15 colon): > 100 µM | TGI (HL-60(TB) leukemia): > 100 µM | TGI (HOP-18 NSCLC): > 100 µM | TGI (HOP-62 NSCLC): > 100 µM | TGI (HT29 colon): > 100 µM | TGI (IGROV1 ovarian): > 100 µM | TGI (K-562 leukemia): > 100 µM | TGI (KM12 colon): > 100 µM | TGI (KM20L2 colon): > 100 µM | TGI (LOX IMVI melanoma): > 100 µM | TGI (M14 melanoma): > 100 µM | TGI (M19-MEL melanoma): > 100 µM | TGI (MALME-3M melanoma): > 100 µM | TGI (MOLT-4 leukemia): > 100 µM | TGI (NCI-H226 lung): > 100 µM | TGI (NCI-H23 lung): > 100 µM | TGI (NCI-H460 lung): > 100 µM | TGI (NCI-H522 lung): > 100 µM | TGI (OVCAR-3 ovarian): > 100 µM | TGI (OVCAR-8 ovarian): > 100 µM | TGI (RPMI-8226 leukemia): > 100 µM | TGI (RXF 393 renal): > 100 µM | TGI (SF-295 CNS): > 100 µM | TGI (SF-539 CNS): > 100 µM | TGI (SK-MEL-28 melanoma): > 100 µM | TGI (SK-MEL-5 melanoma): > 100 µM | TGI (SK-OV-3 ovarian): > 100 µM | TGI (SN12C renal): > 100 µM | TGI (SNB-19 CNS): > 100 µM | TGI (SNB-75 CNS): > 100 µM | TGI (SW-620 colon): > 100 µM | TGI (TK-10 renal): > 100 µM | TGI (U251 CNS): > 100 µM | TGI (UACC-257 melanoma): > 100 µM | TGI (UACC-62 melanoma): > 100 µM | TGI (UO-31 renal): > 100 µM

— PubChem BioAssay (NCI)
